Some results are limits rather than exact numbers.

Chain of Potassium voltage-gated channel subfamily A member 5 (P22460 whole entry): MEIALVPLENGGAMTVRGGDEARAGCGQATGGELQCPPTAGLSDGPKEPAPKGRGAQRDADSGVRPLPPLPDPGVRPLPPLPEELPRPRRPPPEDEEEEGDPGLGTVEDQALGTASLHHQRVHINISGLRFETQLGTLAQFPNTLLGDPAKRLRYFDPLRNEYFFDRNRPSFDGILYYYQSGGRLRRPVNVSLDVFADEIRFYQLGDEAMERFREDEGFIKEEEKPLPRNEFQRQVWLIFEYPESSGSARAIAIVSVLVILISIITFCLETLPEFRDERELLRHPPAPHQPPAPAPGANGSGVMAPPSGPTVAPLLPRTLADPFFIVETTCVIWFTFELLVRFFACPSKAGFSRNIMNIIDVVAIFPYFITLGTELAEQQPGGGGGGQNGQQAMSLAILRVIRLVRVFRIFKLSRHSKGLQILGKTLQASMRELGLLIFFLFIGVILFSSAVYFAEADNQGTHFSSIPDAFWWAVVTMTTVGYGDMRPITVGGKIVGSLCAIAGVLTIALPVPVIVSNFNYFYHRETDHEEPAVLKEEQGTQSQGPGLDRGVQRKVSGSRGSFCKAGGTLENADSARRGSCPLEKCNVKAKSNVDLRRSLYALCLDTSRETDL

The first data set addresses Potassium voltage-gated channel subfamily A member 5 (Homo sapiens, UniProt P22460). Put plainly: Inhibition of human Kv1.5 channel expressed in mouse L929 cells. In kind it is cell-based.
Settings: not given
For `CCc1ccc(S(=O)(=O)N[C@@H]2c3cc(C(=O)N(CC)Cc4ccccc4F)ccc3OC(C)(C)[C@H]2O)cc1`, 170 nM corresponded to half-maximal inhibition (IC50).
On to `CCc1ccc(S(=O)(=O)N[C@@H]2c3cc(C(=O)NCCc4ccccc4)ccc3OC(C)(C)[C@H]2O)cc1`, for which the half-inhibitory concentration (IC50) (commonly the concentration at which inhibition is half-maximal) was found to be 260 nM.
Turning to `CCc1ccc(S(=O)(=O)N[C@@H]2c3cc(C(=O)N(CC)CCNc4ccccc4)ccc3OC(C)(C)[C@H]2O)cc1`, the IC50 was 77 nM.
Still for that read-out and setting: in the case of `CCc1ccc(S(=O)(=O)N[C@@H]2c3cc(C(=O)NCCc4ccccn4)ccc3OC(C)(C)[C@H]2O)cc1` it was over 1000 nM; in that of `CC1(C)Oc2ccc(C(=O)NCCc3ccccc3)cc2[C@@H](NS(=O)(=O)c2ccccc2)[C@@H]1O`, over 1000 nM.
In turn, `Cc1ccc(S(=O)(=O)N[C@@H]2c3cc(C(=O)NCCc4ccccc4)ccc3OC(C)(C)[C@H]2O)cc1` gave an IC50 of 400 nM.
For `Cc1cccc(S(=O)(=O)N[C@@H]2c3cc(C(=O)NCCc4ccccc4)ccc3OC(C)(C)[C@H]2O)c1`, the IC50 was 340 nM.
As to `CC1(C)Oc2ccc(C(=O)NCCc3ccccc3)cc2[C@@H](NS(=O)(=O)c2ccccc2OC(F)(F)F)[C@@H]1O`, the concentration for half-maximal inhibition (IC50) stood at 150 nM.
The compound `CCc1ccc(S(=O)(=O)N[C@H]2c3cc(C(=O)NCCc4ccccc4)ccc3OC(C)(C)[C@@H]2O)cc1` displayed a 50% inhibitory concentration (IC50) of over 1000 nM.
`CCc1ccc(S(=O)(=O)N[C@H]2c3cc(C(=O)N4CCC[C@@H]4CNc4c(C)cccc4C)ccc3OC(C)(C)[C@@H]2O)cc1` returned an IC50 of 89 nM.
Still for that read-out and setting: as for `CCc1ccc(S(=O)(=O)N[C@H]2CC(C)(C)Oc3ccc(C(=O)N4CCC[C@H]4CNc4c(C)cccc4C)cc32)cc1`, the figure is 110 nM; as for `CCc1ccc(S(=O)(=O)N[C@@H]2c3cc(C(=O)N(CC)[C@@H]4CCN(Cc5ccccc5)C4)ccc3OC(C)(C)[C@H]2O)cc1`, 210 nM; as for `CCc1ccc(S(=O)(=O)N[C@@H]2c3cc(C(=N)NCCc4ccccc4)ccc3OC(C)(C)[C@H]2O)cc1`, over 10000 nM.
As for `CCc1ccc(S(=O)(=O)N(Cc2ccccn2)[C@@H]2c3cc(C(=O)NCCc4ccccc4)ccc3OC(C)(C)[C@H]2O)cc1`, 120 nM corresponded to half-maximal inhibition (IC50).
Turning to `CCc1ccc(S(=O)(=O)N[C@@H]2c3cc(C(=O)N4CCC[C@@H]4CNc4c(C)cccc4C)ccc3OC(C)(C)[C@H]2O)cc1`, the IC50 stood at 130 nM.
Still for that read-out and setting: in the case of `CC1(C)Oc2ccc(C(=O)NCCc3ccccc3)cc2[C@@H](NS(=O)(=O)c2ccc(F)cc2)[C@@H]1O` it was over 1000 nM; in that of `COc1ccc(S(=O)(=O)N[C@@H]2c3cc(C(=O)NCCc4ccccc4)ccc3OC(C)(C)[C@H]2O)cc1`, over 1000 nM; in that of `CCc1ccc(S(=O)(=O)N(Cc2cccnc2)[C@@H]2c3cc(C(=O)NCCc4ccccc4)ccc3OC(C)(C)[C@H]2O)cc1`, 130 nM.
With `CCCCN([C@@H]1c2cc(C(=O)NCCc3ccccc3)ccc2OC(C)(C)[C@H]1O)S(=O)(=O)c1ccc(CC)cc1`, the IC50 amounted to 57 nM.
Still for that read-out and setting: as for `CCc1ccc(S(=O)(=O)N(Cc2cnc[nH]2)[C@@H]2c3cc(C(=O)NCCc4ccccc4)ccc3OC(C)(C)[C@H]2O)cc1`, the figure is 280 nM; as for `CCc1ccc(S(=O)(=O)N(CC(C)(C)C)[C@@H]2c3cc(C(=O)NCCc4ccccc4)ccc3OC(C)(C)[C@H]2O)cc1`, 120 nM.
As to `CCc1ccc(S(=O)(=O)N[C@@H]2c3cc(NC(=O)c4cccc(OC)c4)ccc3OC(C)(C)[C@H]2O)cc1`, the midpoint of inhibition, the IC50, lay at 290 nM.
`CCc1ccc(S(=O)(=O)N[C@@H]2c3cc(C(=O)Nc4cccc(OC)c4)ccc3OC(C)(C)[C@H]2O)cc1` registered a half-inhibitory concentration (IC50) of over 10000 nM.
In the case of `CCc1ccc(S(=O)(=O)N[C@@H]2c3cc(C(=O)Nc4ccccc4)ccc3OC(C)(C)[C@H]2O)cc1`, the midpoint of inhibition, the IC50, lay at 260 nM.
On the same count and under the same terms, in the case of `CCc1ccc(S(=O)(=O)N[C@@H]2c3cc(CNCCc4ccccc4)ccc3OC(C)(C)[C@H]2O)cc1` it was 240 nM; in that of `CCc1ccc(S(=O)(=O)N[C@@H]2c3cc(C(=O)N4CCC[C@H]4CNc4c(C)cccc4C)ccc3OC(C)(C)[C@H]2O)cc1`, 120 nM; in that of `CCc1ccc(S(=O)(=O)N[C@@H]2c3cc(C(=O)N(C)c4ccccc4)ccc3OC(C)(C)[C@H]2O)cc1`, 280 nM.
Take `CCc1ccc(S(=O)(=O)N[C@@H]2c3cc(C(=O)n4nc(-c5ccccc5)cc4N)ccc3OC(C)(C)[C@H]2O)cc1`: the IC50 was determined as 79 nM.
In turn, `CCc1ccc(S(=O)(=O)N[C@@H]2c3cc(C(=O)N(CC)[C@H]4CCN(Cc5ccccc5)C4)ccc3OC(C)(C)[C@H]2O)cc1` returned a concentration for half-maximal inhibition (IC50) of 170 nM.
As for `CCc1ccc(S(=O)(=O)N[C@H]2c3cc(C(=O)N4CCC[C@H]4CNc4c(C)cccc4C)ccc3OC(C)(C)[C@@H]2O)cc1`, the half-maximal inhibitory concentration (IC50) came out at 260 nM.
As to `CCc1ccc(S(=O)(=O)N[C@H]2c3cc(C(=O)N(CC)[C@@H]4CCN(Cc5ccccc5)C4)ccc3OC(C)(C)[C@@H]2O)cc1`, the IC50 turned out to be 220 nM.
Take `CCc1ccc(S(=O)(=O)N[C@@H]2c3cc(C(=O)NCCc4c[nH]cn4)ccc3OC(C)(C)[C@H]2O)cc1`: the IC50 was over 10000 nM.
`CC1(C)Oc2ccc(C(=O)NCCc3ccccc3)cc2[C@@H](NS(=O)(=O)c2ccc(C(F)(F)F)cc2)[C@@H]1O` had an IC50 of 200 nM.
On to `CCc1ccc(S(=O)(=O)N[C@@H]2c3cc(S(=O)(=O)NCCc4ccccc4)ccc3OC(C)(C)[C@H]2O)cc1`, for which the concentration for half-maximal inhibition (IC50) is 510 nM.
Compound `CC1(C)Oc2ccc(C(=O)NCCc3ccccc3)cc2[C@@H](NS(=O)(=O)c2ccc([N+](=O)[O-])cc2)[C@@H]1O` returned an IC50 of over 1000 nM.
In turn, `CCc1ccc(S(=O)(=O)N(CC(C)C)[C@@H]2c3cc(C(=O)NCCc4ccccc4)ccc3OC(C)(C)[C@H]2O)cc1` came in with a concentration for half-maximal inhibition (IC50) of 320 nM.
On the same count and under the same terms, in the case of `CCc1ccc(S(=O)(=O)N[C@H]2c3cc(C(=O)N(CC)[C@H]4CCN(Cc5ccccc5)C4)ccc3OC(C)(C)[C@@H]2O)cc1` it was 200 nM.

In another data set the target is hERG (KCNH2) (Homo sapiens, UniProt Q12809). The data set can be described thus: Inhibition of human ERG expressed in human embryonic kidney cells at 10 uM. In kind it is cell-based. Particulars: human embryonic kidney cells expressing human ERG.
Chain of hERG (KCNH2) (Q12809 whole entry): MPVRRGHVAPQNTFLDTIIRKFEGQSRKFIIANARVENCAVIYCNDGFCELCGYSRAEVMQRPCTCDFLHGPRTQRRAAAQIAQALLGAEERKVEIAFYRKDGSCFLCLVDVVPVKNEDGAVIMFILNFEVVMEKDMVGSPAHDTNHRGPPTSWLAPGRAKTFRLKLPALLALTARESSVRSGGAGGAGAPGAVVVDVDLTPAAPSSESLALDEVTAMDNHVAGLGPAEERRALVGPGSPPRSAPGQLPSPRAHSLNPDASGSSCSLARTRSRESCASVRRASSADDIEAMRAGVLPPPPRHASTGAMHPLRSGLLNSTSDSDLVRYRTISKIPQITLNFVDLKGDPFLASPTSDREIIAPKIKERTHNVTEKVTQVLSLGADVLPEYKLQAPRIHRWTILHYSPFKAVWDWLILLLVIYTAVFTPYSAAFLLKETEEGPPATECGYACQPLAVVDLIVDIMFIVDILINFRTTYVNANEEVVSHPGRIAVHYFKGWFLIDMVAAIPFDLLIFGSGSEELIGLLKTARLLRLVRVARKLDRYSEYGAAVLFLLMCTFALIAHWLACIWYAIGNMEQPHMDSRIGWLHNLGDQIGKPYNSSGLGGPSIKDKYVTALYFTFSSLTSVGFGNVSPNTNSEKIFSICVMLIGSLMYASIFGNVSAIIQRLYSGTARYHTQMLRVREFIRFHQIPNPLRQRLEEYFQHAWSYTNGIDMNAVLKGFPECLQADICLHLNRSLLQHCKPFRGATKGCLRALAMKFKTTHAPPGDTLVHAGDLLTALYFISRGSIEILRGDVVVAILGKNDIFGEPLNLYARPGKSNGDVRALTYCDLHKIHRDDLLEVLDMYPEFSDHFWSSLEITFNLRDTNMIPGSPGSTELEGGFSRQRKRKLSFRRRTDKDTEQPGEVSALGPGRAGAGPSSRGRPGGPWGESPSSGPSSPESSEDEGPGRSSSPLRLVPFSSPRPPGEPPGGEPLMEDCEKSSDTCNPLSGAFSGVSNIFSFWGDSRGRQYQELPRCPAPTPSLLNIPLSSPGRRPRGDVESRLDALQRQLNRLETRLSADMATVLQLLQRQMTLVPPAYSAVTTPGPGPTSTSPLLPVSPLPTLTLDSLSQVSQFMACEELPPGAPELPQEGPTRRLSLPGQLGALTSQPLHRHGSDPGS
Regarding `CCc1ccc(S(=O)(=O)N[C@@H]2c3cc(C(=O)N(CC)Cc4ccccc4F)ccc3OC(C)(C)[C@H]2O)cc1`, at 10 µM the inhibition was 7%.
Turning to `CCc1ccc(S(=O)(=O)N[C@@H]2c3cc(C(=O)N(CC)CCNc4ccccc4)ccc3OC(C)(C)[C@H]2O)cc1`, the inhibition (commonly how much of the control response was suppressed) at 10 µM worked out at 39%.
Regarding `CCc1ccc(S(=O)(=O)N[C@H]2CC(C)(C)Oc3ccc(C(=O)N4CCC[C@H]4CNc4c(C)cccc4C)cc32)cc1`, the inhibition at 10 µM was determined as 51%.
On to `CCc1ccc(S(=O)(=O)N(Cc2cccnc2)[C@@H]2c3cc(C(=O)NCCc4ccccc4)ccc3OC(C)(C)[C@H]2O)cc1`, for which testing at 10 µM gave an inhibition of 61%.
As to `CCCCN([C@@H]1c2cc(C(=O)NCCc3ccccc3)ccc2OC(C)(C)[C@H]1O)S(=O)(=O)c1ccc(CC)cc1`, the inhibition at 10 µM was 35%.
The same measure, in the same setting: as for `CCc1ccc(S(=O)(=O)N[C@@H]2c3cc(NC(=O)c4cccc(OC)c4)ccc3OC(C)(C)[C@H]2O)cc1`, the figure is 40%; as for `CCc1ccc(S(=O)(=O)N[C@@H]2c3cc(NC(=O)c4cccc(OC)c4)ccc3C[C@H]2O)cc1`, 21%; as for `CCc1ccc(S(=O)(=O)N[C@@H]2c3cc(C(=O)N4CCC[C@H]4CNc4c(C)cccc4C)ccc3OC(C)(C)[C@H]2O)cc1`, 9%.
`CCc1ccc(S(=O)(=O)N[C@@H]2c3cc(C(=O)n4nc(-c5ccccc5)cc4N)ccc3OC(C)(C)[C@H]2O)cc1` returned an inhibition at 10 µM of 47%.
Still for that read-out and setting: in the case of `CCc1ccc(S(=O)(=O)N[C@H]2c3cc(C(=O)N(CC)[C@H]4CCN(Cc5ccccc5)C4)ccc3OC(C)(C)[C@@H]2O)cc1` it was 80%.

Source of the values: ChEMBL document CHEMBL1145354, “Benzopyran sulfonamides as KV1.5 potassium channel blockers” (Bioorg Med Chem Lett, 2007).
